The source of these data is patent US20090176837A1, “COMPOUNDS WITH ACTIVITY AT RETINOIC ACID RECEPTORS” (SONY CORPORATION, priority 2006, published 2009).

Like-named read-outs stand apart in the source and are kept apart here.

Experiment [1] concerns NTERA-2 Cells. The experiment can be described thus: Induction of neuronal differentiation in NTERA-2 cells. Type of experiment: cell-based.
Experiment [2] concerns the target T1, RARβ2 (Homo sapiens, UniProt P10826).
T1 construct: expressed in transfected cells
T1 sequence (P10826 1-448 isoform P10826-2): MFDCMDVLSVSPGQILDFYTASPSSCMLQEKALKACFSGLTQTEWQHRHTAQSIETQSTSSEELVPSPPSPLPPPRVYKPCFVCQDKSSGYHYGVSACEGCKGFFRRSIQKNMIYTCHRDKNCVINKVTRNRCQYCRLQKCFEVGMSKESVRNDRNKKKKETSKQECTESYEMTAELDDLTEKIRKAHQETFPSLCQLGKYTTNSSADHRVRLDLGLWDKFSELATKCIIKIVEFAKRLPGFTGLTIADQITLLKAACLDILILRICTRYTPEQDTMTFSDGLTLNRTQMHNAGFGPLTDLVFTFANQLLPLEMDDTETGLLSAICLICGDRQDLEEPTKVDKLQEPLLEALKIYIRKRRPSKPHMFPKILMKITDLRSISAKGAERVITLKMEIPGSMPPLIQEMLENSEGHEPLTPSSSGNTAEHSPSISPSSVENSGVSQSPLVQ
The experiment can be described thus: Receptor Selection and Amplification Technology (R-SAT) functional receptor assay. The class given is cell-based. Particulars: for pEC50: Table 1; for % Eff.: Table 1, efficacy relative to the maximal response of the reference ligand Am-580. From the text: The functional receptor assay, Receptor Selection and Amplification Technology (R-SAT), was used to investigate the pharmacological properties of known and novel RARβ agonists and antagonists.
Efficacy is relative to the maximal response of the reference ligand, Am-580.

Setting [3] is: Table 1, efficacy relative to the maximal response of the reference ligand Am-580, read-out: % Eff.
Setting [4] is: Table 1, read-out: pEC50 (converted).

Regarding `CCCCCCCCc1ccc(-c2ccc(C(=O)O)cc2)cc1` [Compound 6], in experiment [1], the neuronal differentiation result is “induce neuronal differentiation”. Moreover, in experiment [2], the pEC50 was determined as 7.73 and the “% Eff.” value was 104%.

As to `CCCCC(CC)COc1nc(-c2ccc(C(=O)O)cc2)sc1C` (stereo not drawn) [Compound 46, 4-[4-(2-Ethyl-hexyloxy)-5-methyl-thiazol-2-yl]-benzoic acid], the Emax in experiment [2] (setting [3]) is 54%. Besides, the EC50 in experiment [2] (setting [4]) is 263 nM.

Take `O=C(O)c1ccc(-c2ccc(OCCC=C(C3CC3)C3CC3)cc2)cc1` [Compound 47, 4′-(4,4-Dicyclopropyl-but-3-enyloxy)-biphenyl-4-carboxylic acid]: in experiment [2], the “% Eff.” value was found to be 58%.

Take `CCCCCCCCc1ccc(-c2ccc(C(=O)OCc3ccco3)cc2)cc1` [Compound 48, 4′-Octyl-biphenyl-4-carboxylic acid furan-2-ylmethyl ester]: the Emax in experiment [2] (Table 2, efficacy relative to the maximal response of the reference ligand Am-580, read-out: % Eff.) is 49%. For the same compound, the EC50 in experiment [2] (Table 2, read-out: pEC50 (converted)) was 275 nM.

On to `CCCC1CCCC(c2ccc(-c3ccc(C(=O)O)cc3)cc2)CC1` (stereo not drawn) [Compound 49], for which the pEC50 in experiment [2] is on record as 6.55. Also, the Emax in experiment [2] (setting [3]) was determined as 59%.

With `CCCCCCCCN1CCN(c2ccc(C(=O)O)cc2)CC1` [Compound 50, 4-(4-Octyl-piperazin-1-yl)-benzoic acid], the Emax in experiment [2] (setting [3]) worked out at 85%. Further, in experiment [2] (pEC50, Table 1), the EC50 is 295 nM.

Take `CCCCCCCCOc1ccc(-c2ccc(C(=O)NCCC#N)cc2)cc1` [Compound 51, 4′-Octyloxy-biphenyl-4-carboxylic acid (2-cyano-ethyl)-amide]: the Emax in experiment [2] (setting [3]) amounted to 59%. The EC50 in experiment [2] (setting [4]) was 309 nM.

With `CCCCCCCCc1ccc(-c2ccc(C(=O)O)cc2)cc1` [Compound 53, 4′-Octyl[1,1′-biphenyl]-4-carboxylic acid], in experiment [2], the “% Eff.” value is 99%. The EC50 in experiment [2] (setting [4]) was 513 nM.

`CCCCCCCCOc1ccc(-c2ccc(C(=O)NCCc3ccccn3)cc2)cc1` [Compound 54, 4′-Octyloxy-biphenyl-4-carboxylic acid (2-pyridin-2-yl-ethyl)-amide]: in experiment [2] (setting [3]), the Emax amounted to 39%. Further, the EC50 in experiment [2] (setting [4]) is 661 nM.

In the case of `CCCCCCCCc1ccc(-c2ccc(C(=O)O)c(C)c2)cc1` [Compound 55, 3-Methyl-4′-octyl[1,1′-biphenyl]-4-carboxylic acid], the Emax in experiment [2] (setting [3]) was 84%. The EC50 in experiment [2] (setting [4]) is 676 nM.

Turning to `Cc1sc(-c2ccc(C(=O)O)cc2)nc1OCC(=O)NC1CCCCCC1` [Compound 56, 4-(4-Cycloheptycarbamoylmethoxy-5-methyl-thiazol-2-yl)-benzoic acid], the Emax in experiment [2] (setting [3]) is 105%. For the same compound, the EC50 in experiment [2] (setting [4]) is 676 nM.

`Cc1sc(-c2ccc(C(=O)O)cc2)nc1OCC(=O)NC(C)CCC(C)C` (stereo not drawn) [Compound 57, 4-[4-[2-[(1,4-Dimethylpentyl)amino]-2-oxoethoxy]-5-methyl-2-thiazolyl]-benzoic acid]: the Emax in experiment [2] (setting [3]) was determined as 77%. Besides, the EC50 in experiment [2] (setting [4]) was 676 nM.

With `Cc1sc(-c2ccc(C(=O)O)cc2)nc1OCC(=O)NC1CCC(C)CC1` (stereo not drawn) [Compound 58, 4-[5-Methyl-4-[2-[(4-methylcyclohexyl)amino]-2-oxoethoxy]-2-thiazolyl]-benzoic acid], the Emax in experiment [2] (setting [3]) was 66%. Further, the EC50 in experiment [2] (setting [4]) is 708 nM.

For the compound `CCCCCCCc1ccc(-c2ccc(C(=O)NCCc3ccccn3)cc2)cc1` [Compound 59, 4′-Heptyl-biphenyl-4-carboxylic acid (2-pyridin-2-yl-ethyl)-amide], the Emax in experiment [2] (setting [3]) came out at 35%. Also, the EC50 in experiment [2] (setting [4]) is 776 nM.

`CCCCCCCCc1ccc(-c2ccc(C(=O)NS(C)(=O)=O)cc2)cc1` [Compound 60, N-(4′-Octyl-biphenyl-4-carbonyl)-methanesulfonamide]: in experiment [2] (setting [3]), the Emax worked out at 51%. Moreover, the EC50 in experiment [2] (setting [4]) is 832 nM.

Consider `Cc1sc(-c2ccc(C(=O)O)cc2)nc1OCC(=O)NC1CCCC1` [Compound 61, 4-(4-Cyclopentylcarbamoylmethoxy-5-methyl-thiazol-2-yl)-benzoic acid], for which, in experiment [2] (setting [3]), the Emax was found to be 39%. Further, in experiment [2] (setting [4]), the EC50 is 832 nM.

For the compound `CCCCNC(=O)COc1nc(-c2ccc(C(=O)O)cc2)sc1C` [Compound 62, 4-(4-Butylcarbamoylmethoxy-5-methyl-thiazol-2-yl)-benzoic acid], the Emax in experiment [2] (setting [3]) turned out to be 37%. For the same compound, the EC50 in experiment [2] (setting [4]) was 832 nM.

As for `CCCCCCc1ccc(-c2ccc(C(=O)Nc3ccc(C)cn3)cc2)cc1` [Compound 63, 4′-Hexyl-biphenyl-4-carboxylic acid (5-methyl-pyridin-2-yl)-amide], the Emax in experiment [2] (setting [3]) came to 36%. Moreover, in experiment [2] (setting [4]), the EC50 was 891 nM.

Turning to `CCCCCCCCc1ccc(-c2ccc(C(=O)OCCc3ccccn3)cc2)cc1` [Compound 68], the neuronal differentiation entry in experiment [1] is recorded as “induce neuronal differentiation”.

In the case of “Imidazol-1-yl-(4-octyl-biphenyl-4-yl)-methanone [Compound 8]”, in experiment [2], the pEC50 came out at 7.66 and the “% Eff.” value is 79%.
